From patent US20100261618A1, “Identification of genes implicated in the virulence of streptococcus agalactiae” (priority 2006, published 2010)
Where two headings read alike, the source gives them in different places.

Experiments:
GBS 0582 = target: T1, GBS 0582 (Streptococcus agalactiae, UniProt Q8E126); assay: biochemical; parameters: species or system S. agalactiae
T1 sequence (Q8E126 1-311): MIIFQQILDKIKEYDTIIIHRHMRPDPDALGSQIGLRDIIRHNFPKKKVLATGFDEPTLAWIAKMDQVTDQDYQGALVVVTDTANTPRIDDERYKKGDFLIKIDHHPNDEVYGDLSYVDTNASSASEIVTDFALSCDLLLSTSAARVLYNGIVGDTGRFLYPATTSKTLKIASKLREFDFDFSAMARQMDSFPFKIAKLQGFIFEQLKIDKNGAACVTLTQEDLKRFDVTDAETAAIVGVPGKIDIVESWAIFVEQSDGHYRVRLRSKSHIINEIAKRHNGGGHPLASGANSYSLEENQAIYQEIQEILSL

GBS 0307 = GBS 0307 (Streptococcus agalactiae, UniProt Q8E1N5, T550A); assay: biochemical
Sequence of GBS 0307 (Q8E1N5 whole entry T550A): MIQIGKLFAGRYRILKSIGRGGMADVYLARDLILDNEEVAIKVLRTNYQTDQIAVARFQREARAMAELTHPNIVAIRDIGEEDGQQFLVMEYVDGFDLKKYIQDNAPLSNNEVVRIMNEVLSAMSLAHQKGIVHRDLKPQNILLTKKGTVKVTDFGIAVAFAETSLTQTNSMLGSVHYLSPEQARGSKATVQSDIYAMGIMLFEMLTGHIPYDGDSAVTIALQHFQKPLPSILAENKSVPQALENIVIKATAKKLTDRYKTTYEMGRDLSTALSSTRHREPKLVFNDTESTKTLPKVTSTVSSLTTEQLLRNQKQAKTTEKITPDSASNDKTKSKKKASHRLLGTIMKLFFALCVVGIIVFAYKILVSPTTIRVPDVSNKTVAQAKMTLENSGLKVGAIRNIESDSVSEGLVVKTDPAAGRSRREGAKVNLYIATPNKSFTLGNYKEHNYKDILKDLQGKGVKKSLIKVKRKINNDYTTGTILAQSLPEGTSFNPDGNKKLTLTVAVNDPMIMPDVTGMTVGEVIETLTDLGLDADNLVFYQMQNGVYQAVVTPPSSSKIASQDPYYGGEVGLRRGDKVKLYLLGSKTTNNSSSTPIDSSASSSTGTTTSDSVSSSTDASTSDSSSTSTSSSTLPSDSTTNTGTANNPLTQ

[1] = system: S. agalactiae NEM316 wild type strain; assay: Sensitivity to colistin (MIC) of the wild type strain
Protocol: Screening for sensitivity to cationic peptide colistin and cell wall defect of the mutant library. The S. agalactiae mutants were grown TH-Kn in 96-wells microplates over-night. Bacteria were then diluted to 1:1000 and each dilution was dispatched into two microplates. In one microplate 50 μl of TH was added, whereas 50 μl of 512 μg/ml colistin (Sigma) or 2 μg/ml novobiocin (Sigma) was added in the other thus obtaining final concentrations of 256 μg/ml and 1 μg/ml, respectively. Microplates were incubated overnight at 37° C. OD600 of microplates was read on a Multiskan Ex apparatus (Thermo).

Compound: Nc1ncnc2c1ncn2[C@@H]1O[C@H](COP(=O)(O)OP(=O)(O)O)[C@@H](O)[C@H]1O [ADP]
- IC50 (GBS 0582; read-out: IC50): 405 µM

Compound: Nc1ncnc2c1ncn2[C@@H]1O[C@H](COP(=O)(O)O)[C@@H](O)[C@H]1O [AMP, Adenosine monophosphate]
- IC50 (GBS 0582): 235 ± 45 µM

Compound: CN[C@@H]1C[C@H]2O[C@@](C)([C@@H]1OC)n1c3ccccc3c3c4c(c5c6ccccc6n2c5c31)C(=O)NC4 [Staurosporine]
- IC50 (GBS 0307): 0.023 ± 0.008 µM

Compound: colistin
- CMI [1]: ≤ 1024 µg/mL
